This note sets out measurements from patent publication US9346812B2, “Substituted pyrrolopyrimidine compounds, compositions thereof, and methods of treatment therewith” (Signal Pharmaceutical LLC, priority 2013, dated 2016).

The assay relates to CAL51 cell proliferation. Briefly: Cell Titer Glo Proliferation Assay (CAL51). Format: cell-based, human. Conditions: Homo sapiens, CAL-51; CAL51 cell proliferation, 72 h, Cell Titer Glo luminescence; read-out: Act. Level. Summed up:
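Viability is measured by CellTiter-Glo luminescence after 72 h of compound exposure. CAL51 cells were seeded in growth medium with 10% FBS and 2 mM glutamine, cultured overnight, then dosed with compound dilutions, vehicle held at 0.2% DMSO.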

As to `COc1nc(Nc2ccc(C(=O)N(C)C)cc2Cl)nc2[nH]cc(-c3ccc4[nH]c(N)nc4c3)c12` [Example 71, 4-(5-(2-amino-1H-benzo[d]imidazol-5-yl)-4-methoxy-7H-pyrrolo[2,3-d]pyrimidin-2-ylamino)-3-chloro-N,N-dimethylbenzamide], the IC50 was 100 to 400 nM.

As for `COc1cc(C(=O)N[C@@H]2CCC[C@H]2O)ccc1Nc1nc(OC2CCCC2)c2c(-c3ccc4nc(C)oc4c3)c[nH]c2n1` [Example 266, 4-(4-(cyclopentyloxy)-5-(2-methylbenzo[d]oxazol-6-yl)-7H-pyrrolo[2,3-d]pyrimidin-2-ylamino)-N-((1R,2R)-2-hydroxycyclopentyl)-3-methoxybenzamide], the IC50 fell in the range of 100 to 400 nM.

`COc1cc(C(=O)N[C@@H](C)CO)ccc1Nc1nc(OC2CCCC2)c2c(-c3ccc4nc(C)oc4c3)c[nH]c2n1` [Example 215, (S)-4-(4-(cyclopentyloxy)-5-(2-methylbenzo[d]oxazol-6-yl)-7H-pyrrolo[2,3-d]pyrimidin-2-ylamino)-N-(1-hydroxypropan-2-yl)-3-methoxybenzamide]: the IC50 is under 100 nM.

Turning to `COc1cc(C(=O)N[C@H]2CCOC2)ccc1Nc1nc(OC2CCCC2)c2c(-c3ccc4nc(C)oc4c3)c[nH]c2n1` [Example 267, (S)-4-(4-(cyclopentyloxy)-5-(2-methylbenzo[d]oxazol-6-yl)-7H-pyrrolo[2,3-d]pyrimidin-2-ylamino)-3-methoxy-N-(tetrahydrofuran-3-yl)benzamide], the IC50 lay in the range of 100 to 400 nM.

On to `Cc1nc2ccc(-c3c[nH]c4nc(Nc5ccc(C(=O)N(C)C)cc5C)nc(O[C@H]5CCCOC5)c34)cc2o1` [Example 104, (S)-N,N,3-trimethyl-4-(5-(2-methylbenzo[d]oxazol-6-yl)-4-(tetrahydro-2H-pyran-3-yloxy)-7H-pyrrolo[2,3-d]pyrimidin-2-ylamino)benzamide], for which the IC50 was under 100 nM.

Turning to `CNC(=O)c1ccc(Nc2nc(OC(C)C)c3c(-c4ccc5nc(C)oc5c4)c[nH]c3n2)c(OC)c1` [Example 125, 4-(4-isopropoxy-5-(2-methylbenzo[d]oxazol-6-yl)-7H-pyrrolo[2,3-d]pyrimidin-2-ylamino)-3-methoxy-N-methylbenzamide], the IC50 was under 100 nM.

`COCCOc1nc(Nc2ccc(C(=O)N(C)C)cc2OC)nc2[nH]cc(-c3cnn(C)c3)c12` [Example 221, 3-methoxy-4-(4-(2-methoxyethoxy)-5-(1-methyl-1H-pyrazol-4-yl)-7H-pyrrolo[2,3-d]pyrimidin-2-ylamino)-N,N-dimethylbenzamide]: the IC50 is under 100 nM.

For the molecule `CNC(=O)c1ccc(Nc2nc(OC3CCOCC3)c3c(-c4ccc(N(C)C)nc4)c[nH]c3n2)c(OC)c1` [Example 126, 4-(5-(6-(dimethylamino)pyridin-3-yl)-4-(tetrahydro-2H-pyran-4-yloxy)-7H-pyrrolo[2,3-d]pyrimidin-2-ylamino)-3-methoxy-N-methylbenzamide], the IC50 was 400 to 1000 nM.

With `CNc1nc(Nc2ccc(C(=O)N(C)C)cc2Cl)nc2[nH]cc(-c3ccc(-c4nnc[nH]4)cc3)c12` [Example 72, 4-(5-(4-(4H-1,2,4-triazol-3-yl)phenyl)-4-(methylamino)-7H-pyrrolo[2,3-d]pyrimidin-2-ylamino)-3-chloro-N,N-dimethylbenzamide], the IC50 fell in the range of 400 to 1000 nM.

Turning to `CNC(=O)c1ccc(Nc2nc(OC3CCOCC3)c3c(-c4ccnc(NC(C)=O)c4)c[nH]c3n2)c(OC)c1` [Example 236, 4-(5-(2-acetamidopyridin-4-yl)-4-(tetrahydro-2H-pyran-4-yloxy)-7H-pyrrolo[2,3-d]pyrimidin-2-ylamino)-3-methoxy-N-methylbenzamide], the IC50 was under 100 nM.

In the case of `CNC(=O)c1ccc(Nc2nc(OC3CCOCC3)c3c(-c4cnccn4)c[nH]c3n2)c(OC)c1` [Example 186, 3-methoxy-N-methyl-4-(5-(pyrazin-2-yl)-4-(tetrahydro-2H-pyran-4-yloxy)-7H-pyrrolo[2,3-d]pyrimidin-2-ylamino) benzamide], the IC50 was 100 to 400 nM.

On to `COc1cc(C(=O)NC[C@@H]2CCCO2)ccc1Nc1nc(OC2CCCC2)c2c(-c3ccc4nc(C)oc4c3)c[nH]c2n1` [Example 254, (S)-4-(4-(cyclopentyloxy)-5-(2-methylbenzo[d]oxazol-6-yl)-7H-pyrrolo[2,3-d]pyrimidin-2-ylamino)-3-methoxy-N-((tetrahydrofuran-2-yl)methyl) benzamide], for which the IC50 lay in the range of 100 to 400 nM.

Turning to `COc1cc(C(=O)N2CCN(C)CC2)ccc1Nc1nc(OC2CCCC2)c2c(-c3ccc4nc(C)oc4c3)c[nH]c2n1` [Example 259, (4-(4-(cyclopentyloxy)-5-(2-methylbenzo[d]oxazol-6-yl)-7H-pyrrolo[2,3-d]pyrimidin-2-ylamino)-3-methoxyphenyl)(4-methylpiperazin-1-yl)methanone], the IC50 was under 100 nM.

Consider `CNC(=O)c1ccc(Nc2nc(NC3CC3)c3c(-c4ccc5nc(C)oc5c4)c[nH]c3n2)c(OC)c1` [Example 212, 4-(4-(cyclopropylamino)-5-(2-methylbenzo[d]oxazol-6-yl)-7H-pyrrolo[2,3-d]pyrimidin-2-ylamino)-3-methoxy-N-methylbenzamide], for which the IC50 is 100 to 400 nM.

On to `CNC(=O)c1ccc(Nc2nc(OC3CCOCC3)c3c(-c4ccnc(N(C)C)c4)c[nH]c3n2)c(OC)c1` [Example 131, 4-(5-(2-(dimethylamino)pyridin-4-yl)-4-(tetrahydro-2H-pyran-4-yloxy)-7H-pyrrolo[2,3-d]pyrimidin-2-ylamino)-3-methoxy-N-methylbenzamide], for which the IC50 was under 100 nM.

Consider `COc1cc(C(=O)NC[C@H]2CCCO2)ccc1Nc1nc(OC2CCCC2)c2c(-c3ccc4nc(C)oc4c3)c[nH]c2n1` [Example 242, (R)-4-(4-(cyclopentyloxy)-5-(2-methylbenzo[d]oxazol-6-yl)-7H-pyrrolo[2,3-d]pyrimidin-2-ylamino)-3-methoxy-N-((tetrahydrofuran-2-yl)methyl)benzamide], for which the IC50 was 100 to 400 nM.

As for `COc1cc(C(=O)N[C@H]2CCC[C@@H]2O)ccc1Nc1nc(OC2CCCC2)c2c(-c3ccc4nc(C)oc4c3)c[nH]c2n1` [Example 265, 4-(4-(cyclopentyloxy)-5-(2-methylbenzo[d]oxazol-6-yl)-7H-pyrrolo[2,3-d]pyrimidin-2-ylamino)-N-((1S,2S)-2-hydroxy-cyclopentyl)-3-methoxybenzamide], the IC50 is 100 to 400 nM.

Regarding `CNC(=O)c1ccc(Nc2nc(OC)c3c(-c4ccncc4)c[nH]c3n2)c(C)c1` [Example 156, 4-(4-methoxy-5-(pyridin-4-yl)-7H-pyrrolo[2,3-d]pyrimidin-2-ylamino)-N,3-dimethylbenzamide], the IC50 fell in the range of 100 to 400 nM.

As to `Cc1cc(-c2c[nH]c3nc(Nc4ccc(C(=O)N(C)C)cc4C)nc(OC4CCOCC4)c23)ccn1` [Example 117, N,N,3-trimethyl-4-(5-(2-methyl-pyridin-4-yl)-4-(tetrahydro-2H-pyran-4-yloxy)-7H-pyrrolo[2,3-d]pyrimidin-2-ylamino)benzamide], the IC50 was under 100 nM.

Take `COc1cc(C(=O)NCCO)ccc1Nc1nc(OC2CC2)c2c(-c3ccc4nc(C)oc4c3)c[nH]c2n1` [Example 216, 4-(4-cyclopropoxy-5-(2-methylbenzo[d]oxazol-6-yl)-7H-pyrrolo[2,3-d]pyrimidin-2-ylamino)-N-(2-hydroxyethyl)-3-methoxybenzamide]: the IC50 was under 100 nM.

As for `CNC(=O)c1ccc(Nc2nc(OC3CCCC3)c3c(-c4ccc5cn[nH]c5c4)c[nH]c3n2)c(OC)c1` [Example 25, 4-(4-(cyclopentyloxy)-5-(1H-indazol-6-yl)-7H-pyrrolo[2,3-d]pyrimidin-2-ylamino)-3-methoxy-N-methylbenzamide], the IC50 was in the range of 100 to 400 nM.

With `CNC(=O)c1ccc(Nc2nc(OC3CCCC3)c3c(-c4ccc5oc(C)nc5c4)c[nH]c3n2)c(OC)c1` [Example 35, 4-(4-(cyclopentyloxy)-5-(2-methylbenzo[d]oxazol-5-yl)-7H-pyrrolo[2,3-d]pyrimidin-2-ylamino)-3-methoxy-N-methylbenzamide], the IC50 was 1000 to 10000 nM.

As to `CNC(=O)c1ccc(Nc2nc(OC3CCCC3)c3c(-c4ccc(NC(C)=O)cc4)c[nH]c3n2)c(OC)c1` [Example 62, 4-(5-(4-acetamidophenyl)-4-(cyclopentyloxy)-7H-pyrrolo[2,3-d]pyrimidin-2-ylamino)-3-methoxy-N-methylbenzamide], the IC50 was under 100 nM.

Turning to `CNC(=O)c1ccc(Nc2nc(OC3CCCC3)c3c(-c4ccncc4)c[nH]c3n2)c(OC)c1` [Example 66, 4-(4-(cyclopentyloxy)-5-(pyridin-4-yl)-7H-pyrrolo[2,3-d]pyrimidin-2-ylamino)-3-methoxy-N-methylbenzamide], the IC50 was under 100 nM.

Regarding `COc1cc(C(=O)NC[C@@H](C)O)ccc1Nc1nc(OC2CCCC2)c2c(-c3ccc4nc(C)oc4c3)c[nH]c2n1` [Example 230, (R)-4-(4-(cyclopentyloxy)-5-(2-methylbenzo[d]oxazol-6-yl)-7H-pyrrolo[2,3-d]pyrimidin-2-ylamino)-N-(2-hydroxypropyl)-3-methoxybenzamide], the IC50 lay in the range of 100 to 400 nM.

As for `CNC(=O)c1ccc(Nc2nc(O[C@H]3CC[C@](C)(O)CC3)c3c(-c4ccc5nc(C)oc5c4)c[nH]c3n2)c(OC)c1` [Example 205, 4-(4-((1r,4r)-4-hydroxy-4-methylcyclohexyloxy)-5-(2-methylbenzo[d]oxazol-6-yl)-7H-pyrrolo[2,3-d]pyrimidin-2-ylamino)-3-methoxy-N-methylbenzamide], the IC50 is under 100 nM.

As to `CNC(=O)c1ccc(Nc2nc(OC3CCCC3)c3c(-c4ccc(C#N)cc4)c[nH]c3n2)c(OC)c1` [Example 77, 4-(5-(4-cyanophenyl)-4-(cyclopentyloxy)-7H-pyrrolo[2,3-d]pyrimidin-2-ylamino)-3-methoxy-N-methylbenzamide], the IC50 was in the range of 1000 to 10000 nM.

For the molecule `CNC(=O)c1ccc(Nc2nc(OC3CCCC3)c3c(-c4cccc(NC(C)=O)c4)c[nH]c3n2)c(OC)c1` [Example 56, 4-(5-(3-acetamidophenyl)-4-(cyclopentyloxy)-7H-pyrrolo[2,3-d]pyrimidin-2-ylamino)-3-methoxy-N-methylbenzamide], the IC50 was under 100 nM.
